Test results from ChEMBL document CHEMBL3232941, “Docking and SAR studies of calystegines: binding orientation and influence on pharmacological chaperone effects for Gaucher's disease” (Bioorg Med Chem, 2014).

How the values were obtained:
[1] = molecular target: T1, Lysosomal acid glucosylceramidase (Homo sapiens, UniProt P04062); assay: Competitive inhibition of human lysosomal beta-glucocerebrosidase using 4-methylumbelliferyl-beta-D-glucopyranoside as substrate preincubated for 45 mins before substrate addition measured after 30 mins by double-reciprocal plot analysis
T1 sequence (P04062 whole entry): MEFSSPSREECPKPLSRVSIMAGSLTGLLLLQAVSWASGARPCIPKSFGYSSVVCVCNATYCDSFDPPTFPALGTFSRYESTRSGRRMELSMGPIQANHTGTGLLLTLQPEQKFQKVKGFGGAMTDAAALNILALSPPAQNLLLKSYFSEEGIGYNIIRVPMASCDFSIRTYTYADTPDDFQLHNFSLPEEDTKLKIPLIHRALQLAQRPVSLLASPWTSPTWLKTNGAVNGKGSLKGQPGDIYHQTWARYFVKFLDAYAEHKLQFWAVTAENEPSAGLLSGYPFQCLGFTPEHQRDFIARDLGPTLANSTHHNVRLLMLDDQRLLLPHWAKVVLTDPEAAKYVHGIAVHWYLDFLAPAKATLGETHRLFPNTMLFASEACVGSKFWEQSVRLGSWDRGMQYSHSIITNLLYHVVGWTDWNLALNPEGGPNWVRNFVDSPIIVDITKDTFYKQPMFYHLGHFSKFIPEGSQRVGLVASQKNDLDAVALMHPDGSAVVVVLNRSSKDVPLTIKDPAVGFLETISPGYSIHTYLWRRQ

[2] = molecular target: T1, Lysosomal acid glucosylceramidase; assay: Inhibition of human lysosomal beta-glucocerebrosidase using 4-methylumbelliferyl-beta-D-glucopyranoside as substrate preincubated for 45 mins before substrate addition measured after 30 mins by fluorescence spectrophotometer analysis
[3] = molecular target: T2, Lysosomal acid glucosylceramidase (Homo sapiens) (UniProt P04062); assay: Inhibition of human lysosomal beta-glucocerebrosidase using 4-methylumbelliferyl-beta-D-glucopyranoside as substrate at 1000 uM preincubated for 45 mins before substrate addition measured after 30 mins by fluorescence spectrophotometer analysis
T2 sequence (whole entry): T1 sequence (P04062 whole entry)

| SMILES | Ki [1] [µM] | IC50 [2] [µM] | inhibition [3] [%] |
| --- | --- | --- | --- |
| O[C@@H]1[C@@H](O)[C@H]2CC[C@](O)(N2)[C@@H]1O | 199 | 616 | – |
| O[C@@H]1[C@@H](O)[C@H](O)[C@]2(O)CC[C@H]1N2 [CALYSTEGINE B2] | 3.8 | 5.1 | – |
| O[C@@H]1C[C@H]2CC[C@](O)(N2)[C@H]1O | 6.3 | 16 | – |
| O[C@@H]1[C@@H](O)C[C@]2(O)CC[C@H]1N2 | – | – | < 50 |
| O[C@@H]1[C@H](O)[C@H]2CC[C@](O)(N2)[C@H]1O | 98 | 175 | – |
